Results from patent US20210251963A1, “UREA DERIVATIVES FOR USE IN THE TREATMENT OF SUBJECTS WITH ELEVATED EXPRESSION AND/OR ACTIVITY OF SRPK1” (Scandion Oncology A/S, priority 2018, published 2021).
Where two headings read alike, the source gives them in different places.

Assays:
SRPK1 = target: T1, SRPK1 (Homo sapiens, UniProt Q96SB4); assay: Premier Screen kinase activity screening and IC50 determination (33P ATP filter binding); assay type: biochemical
T1 construct: purchased MRC in Dundee (Premier Screen service)
T1 sequence (Q96SB4 whole entry): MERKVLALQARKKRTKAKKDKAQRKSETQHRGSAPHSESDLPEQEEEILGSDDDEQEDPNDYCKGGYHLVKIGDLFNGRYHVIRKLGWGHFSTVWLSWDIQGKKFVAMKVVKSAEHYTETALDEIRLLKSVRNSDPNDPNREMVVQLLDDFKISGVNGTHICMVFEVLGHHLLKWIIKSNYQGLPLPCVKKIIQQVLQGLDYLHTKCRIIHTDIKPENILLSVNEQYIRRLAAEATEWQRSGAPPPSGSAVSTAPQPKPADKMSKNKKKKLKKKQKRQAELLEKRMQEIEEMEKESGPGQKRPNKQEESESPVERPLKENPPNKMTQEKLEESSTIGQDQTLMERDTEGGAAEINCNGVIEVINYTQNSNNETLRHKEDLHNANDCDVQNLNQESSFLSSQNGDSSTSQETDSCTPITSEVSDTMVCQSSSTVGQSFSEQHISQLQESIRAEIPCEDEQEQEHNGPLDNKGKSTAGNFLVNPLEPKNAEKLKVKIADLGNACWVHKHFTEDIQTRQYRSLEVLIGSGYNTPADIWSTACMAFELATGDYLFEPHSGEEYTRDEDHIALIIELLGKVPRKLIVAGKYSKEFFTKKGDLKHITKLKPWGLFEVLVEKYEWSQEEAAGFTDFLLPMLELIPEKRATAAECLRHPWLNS
Excerpt: (§1) The kinase activity screening was done at MRC in Dundee. The screen was a so-called “Premier Screen” with 140 kinases. More specific information can be found here: http://www.kinase-screen.mrc.ac.uk/services/premier-screen
(§2) The method is based on a radioactive filter binding assay using 33P ATP (Hastie, et al 2006. Nat Protoc. 2006; 1(2):968-71; Bain, et al 2007. Biochem J. 2007 Dec. 15; 408(3):297-315). This method is sensitive, accurate and provides a direct measure of kinase enzyme activity. A concentration of 10 μM SCO-101 was used.
(§3) In the table below, the data is portrayed as the mean percentage activity of assay duplicates and a standard deviation. These percentage activities were calculated in comparison to DMSO controls. 10 μM SCO-101 reduced the activity of SRPK1 to 6% of the DMSO control.
This experiment was technically carried out as described in example 1, also done by MRC in Dundee. However, in this experiment 10 different concentrations of SCO-101 was applied in order to determine the half maximal inhibitory concentration (IC50). The following concentrations (in nM) were applied: 1.5, 5, 15, 50, 150, 500, 1500, 5000, […] and 50000. This experiment generated a dose response curve (FIG. 1), which confirmed the SCO-101 mediated inhibition of SRPK1. The IC50 value was determined to be 3.0 μM (Table 2).

AMPK (hum) = assay: Premier Screen kinase activity screening (33P ATP filter binding); assay type: biochemical, human; conditions: 10 μM SCO-101, mean of assay duplicates
Excerpt: as §1, §2, §3

[1] = test system: HT29 SN38 resistant colon cancer cells; assay: Cell viability (MTT assay); assay type: cell-based; conditions: 72 hours
Description: (§4) SN38 was applied to a SN38 sensitive colon cancer cell line (“HT29 parental”) and to a SN38 resistant colon cancer cell line (“HT29 SN38 resistant”).
(§5) The Log Concentration (μM) used are—1 for SN38. Data represents cell viability data (MTT assay) and cells were incubated with drugs for 72 hours.
(§6) The Log Concentrations (μM) used are—1 for SN38, and 1.5 for both Srpkin340 and Sphinx 31. Data represents cell viability data (MTT assay) and cells were incubated with drugs for 72 hours.

[2] = Cell viability (MTT assay); assay type: cell-based; conditions: human, HT29 SN38 resistant colon cancer cells, HT29 SN38 resistant, SCO-101 20 μM alone, read-out: cell viability, % of untreated control cells
Description: as §4, §5, §6

SYK = target: T2, SYK (Homo sapiens, UniProt P43405); assay: Premier Screen kinase activity screening (33P ATP filter binding); assay type: biochemical; conditions: 10 μM SCO-101, mean of assay duplicates, read-out: Kinase activity (percentage of DMSO control)
T2 construct: purchased MRC in Dundee (Premier Screen service)
Excerpt: as §1, §2, §3

ERK1 = target: T3, ERK1 (Homo sapiens, UniProt P27361); assay: as above; assay type: biochemical; conditions: 10 μM SCO-101, mean of assay duplicates, read-out: Kinase activity (percentage of DMSO control)
T3 construct: purchased MRC in Dundee (Premier Screen service)
T3 sequence (P27361 whole entry, species assumed): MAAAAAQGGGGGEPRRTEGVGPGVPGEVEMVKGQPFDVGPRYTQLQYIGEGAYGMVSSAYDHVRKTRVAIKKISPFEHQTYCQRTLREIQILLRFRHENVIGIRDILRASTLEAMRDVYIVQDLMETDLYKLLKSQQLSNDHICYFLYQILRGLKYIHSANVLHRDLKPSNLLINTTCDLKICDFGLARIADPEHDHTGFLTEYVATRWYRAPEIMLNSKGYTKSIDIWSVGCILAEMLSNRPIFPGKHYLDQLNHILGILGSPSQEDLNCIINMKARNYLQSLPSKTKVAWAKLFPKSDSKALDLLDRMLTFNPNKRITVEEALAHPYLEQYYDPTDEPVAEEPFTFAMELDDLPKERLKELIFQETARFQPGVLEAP
Excerpt: as §1, §2, §3

MARK4 = target: T4, MARK4 (Homo sapiens, UniProt Q96L34); assay: as above; assay type: biochemical; conditions: 10 μM SCO-101, mean of assay duplicates, read-out: Kinase activity (percentage of DMSO control)
T4 construct: MRC in Dundee (screening service)
Excerpt: as §1, §2, §3

TGFBR1 = target: T5, TGFBR1 (Homo sapiens, UniProt P36897); assay: as above; assay type: biochemical; conditions: 10 μM SCO-101, mean of assay duplicates, read-out: Kinase activity (percentage of DMSO control)
T5 construct: purchased MRC Dundee, Premier Screen (contract screening service)
Excerpt: as §1, §2, §3

Aurora A = target: T6, Aurora A (Homo sapiens, UniProt O14965); assay: as above; assay type: biochemical; conditions: 10 μM SCO-101, mean of assay duplicates, read-out: Kinase activity (percentage of DMSO control)
T6 construct: MRC in Dundee (screening service)
T6 sequence (O14965 whole entry): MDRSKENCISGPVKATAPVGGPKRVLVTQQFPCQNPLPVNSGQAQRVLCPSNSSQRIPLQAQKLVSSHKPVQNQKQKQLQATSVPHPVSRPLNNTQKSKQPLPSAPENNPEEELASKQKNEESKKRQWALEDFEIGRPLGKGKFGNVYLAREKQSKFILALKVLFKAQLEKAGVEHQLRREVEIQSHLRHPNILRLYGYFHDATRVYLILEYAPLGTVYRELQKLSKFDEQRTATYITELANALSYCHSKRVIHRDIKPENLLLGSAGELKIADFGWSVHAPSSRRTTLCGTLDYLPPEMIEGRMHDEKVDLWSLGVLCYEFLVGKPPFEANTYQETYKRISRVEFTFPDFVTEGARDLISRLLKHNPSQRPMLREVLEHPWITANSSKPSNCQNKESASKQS
Excerpt: as §1, §2, §3

CK2 = target: T7, CK2 (Homo sapiens, UniProt P68400); assay: as above; assay type: biochemical; conditions: 10 μM SCO-101, mean of assay duplicates, read-out: Kinase activity (percentage of DMSO control)
T7 construct: purchased MRC Dundee, Premier Screen (contract screening service)
Excerpt: as §1, §2, §3

Lck = target: T8, Lck (Homo sapiens, UniProt P06239); assay: as above; assay type: biochemical; conditions: 10 μM SCO-101, mean of assay duplicates, read-out: Kinase activity (percentage of DMSO control)
T8 construct: purchased MRC Dundee, Premier Screen (contract screening service)
Excerpt: as §1, §2, §3

BRSK1 = target: T9, BRSK1 (Homo sapiens, UniProt Q8TDC3); assay: as above; assay type: biochemical; conditions: 10 μM SCO-101, mean of assay duplicates, read-out: Kinase activity (percentage of DMSO control)
T9 construct: purchased MRC in Dundee (Premier Screen service)
Excerpt: as §1, §2, §3

IR = target: T10, IR (Homo sapiens, UniProt P06213); assay: as above; assay type: biochemical; conditions: 10 μM SCO-101, mean of assay duplicates, read-out: Kinase activity (percentage of DMSO control)
T10 construct: MRC Dundee (screening service)
Excerpt: as §1, §2, §3

PIM1 = target: T11, PIM1 (Homo sapiens, UniProt P11309); assay: as above; assay type: biochemical; conditions: 10 μM SCO-101, mean of assay duplicates, read-out: Kinase activity (percentage of DMSO control)
T11 construct: purchased MRC in Dundee (Premier Screen service)
T11 sequence (P11309 whole entry, species assumed): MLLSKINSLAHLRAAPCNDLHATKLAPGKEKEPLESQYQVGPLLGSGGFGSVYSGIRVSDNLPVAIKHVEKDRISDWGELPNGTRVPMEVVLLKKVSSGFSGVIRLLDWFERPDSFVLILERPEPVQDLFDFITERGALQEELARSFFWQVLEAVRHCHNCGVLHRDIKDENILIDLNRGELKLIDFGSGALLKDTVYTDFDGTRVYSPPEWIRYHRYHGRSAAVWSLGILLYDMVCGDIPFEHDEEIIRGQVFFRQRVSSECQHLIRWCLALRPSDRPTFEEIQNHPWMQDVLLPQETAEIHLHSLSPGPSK
Excerpt: as §1, §2, §3

RIPK2 = RIPK2 (Homo sapiens, UniProt O43353); assay: as above; assay type: biochemical; conditions: 10 μM SCO-101, mean of assay duplicates, read-out: Kinase activity (percentage of DMSO control)
Excerpt: as §1, §2, §3

SGK1 = target: T12, SGK1 (Homo sapiens, UniProt O00141, S422D); assay: as above; assay type: biochemical; conditions: 10 μM SCO-101, mean of assay duplicates, read-out: Kinase activity (percentage of DMSO control)
T12 construct: purchased MRC Dundee, Premier Screen (contract screening service)
T12 sequence (O00141 60-431 S422D limits assumed, species assumed): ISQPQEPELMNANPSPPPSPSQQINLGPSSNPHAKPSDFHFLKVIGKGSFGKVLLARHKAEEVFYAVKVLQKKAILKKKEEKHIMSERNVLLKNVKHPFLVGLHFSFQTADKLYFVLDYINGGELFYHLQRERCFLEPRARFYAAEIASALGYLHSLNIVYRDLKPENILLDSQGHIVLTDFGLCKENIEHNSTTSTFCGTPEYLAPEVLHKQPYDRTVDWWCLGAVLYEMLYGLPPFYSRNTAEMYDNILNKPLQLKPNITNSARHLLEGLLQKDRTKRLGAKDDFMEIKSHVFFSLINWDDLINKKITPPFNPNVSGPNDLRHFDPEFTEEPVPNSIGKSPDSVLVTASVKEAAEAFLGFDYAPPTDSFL
Excerpt: as §1, §2, §3

RSK1 = target: T13, RSK1 (Homo sapiens, UniProt Q15418); assay: as above; assay type: biochemical; conditions: 10 μM SCO-101, mean of assay duplicates, read-out: Kinase activity (percentage of DMSO control)
T13 construct: MRC Dundee (screening service)
Excerpt: as §1, §2, §3

JNK2 = target: T14, JNK2 (Homo sapiens, UniProt P45984); assay: as above; assay type: biochemical; conditions: 10 μM SCO-101, mean of assay duplicates, read-out: Kinase activity (percentage of DMSO control)
T14 construct: purchased MRC Dundee, Premier Screen (contract screening service)
Excerpt: as §1, §2, §3

BRK = target: T15, BRK (Homo sapiens, UniProt Q13882); assay: as above; assay type: biochemical; conditions: 10 μM SCO-101, mean of assay duplicates, read-out: Kinase activity (percentage of DMSO control)
T15 construct: MRC in Dundee (screening service)
T15 sequence (Q13882 whole entry, species assumed): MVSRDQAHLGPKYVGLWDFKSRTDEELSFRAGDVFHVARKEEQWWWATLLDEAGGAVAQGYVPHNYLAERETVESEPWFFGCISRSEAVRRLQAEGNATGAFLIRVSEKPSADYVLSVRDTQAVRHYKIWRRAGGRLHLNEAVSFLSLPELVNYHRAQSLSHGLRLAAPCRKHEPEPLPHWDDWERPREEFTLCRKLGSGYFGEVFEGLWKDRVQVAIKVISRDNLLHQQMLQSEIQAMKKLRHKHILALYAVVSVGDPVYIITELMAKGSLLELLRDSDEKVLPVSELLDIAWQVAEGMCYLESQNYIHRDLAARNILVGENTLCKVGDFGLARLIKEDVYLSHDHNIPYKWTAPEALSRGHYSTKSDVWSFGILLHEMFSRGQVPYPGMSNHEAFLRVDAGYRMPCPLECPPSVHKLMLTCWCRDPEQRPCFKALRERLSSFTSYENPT
Excerpt: as §1, §2, §3

PKBb = target: T16, PKBb (Homo sapiens, UniProt P31751); assay: as above; assay type: biochemical; conditions: 10 μM SCO-101, mean of assay duplicates, read-out: Kinase activity (percentage of DMSO control)
T16 construct: MRC in Dundee (screening service)
Excerpt: as §1, §2, §3

CDK2-Cyclin A = CDK2-Cyclin A (Homo sapiens, UniProt P24941); assay: as above; assay type: biochemical; conditions: 10 μM SCO-101, mean of assay duplicates, read-out: Kinase activity (percentage of DMSO control)
Excerpt: as §1, §2, §3

LKB1 = target: T17, LKB1 (Homo sapiens, UniProt Q15831); assay: as above; assay type: biochemical; conditions: 10 μM SCO-101, mean of assay duplicates, read-out: Kinase activity (percentage of DMSO control)
T17 construct: MRC Dundee (screening service)
T17 sequence (Q15831 whole entry, species assumed): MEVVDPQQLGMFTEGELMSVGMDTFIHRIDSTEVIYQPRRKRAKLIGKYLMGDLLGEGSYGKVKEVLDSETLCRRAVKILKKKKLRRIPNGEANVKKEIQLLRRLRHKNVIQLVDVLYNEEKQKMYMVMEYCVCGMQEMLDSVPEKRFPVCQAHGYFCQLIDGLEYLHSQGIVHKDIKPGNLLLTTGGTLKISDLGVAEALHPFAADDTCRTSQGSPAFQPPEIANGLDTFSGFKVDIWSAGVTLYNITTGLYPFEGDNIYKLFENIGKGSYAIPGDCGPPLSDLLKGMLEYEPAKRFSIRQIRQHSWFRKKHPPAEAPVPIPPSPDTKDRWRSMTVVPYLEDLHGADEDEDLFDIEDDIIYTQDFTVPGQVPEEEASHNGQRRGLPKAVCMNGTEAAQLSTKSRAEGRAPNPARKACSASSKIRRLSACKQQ
T17 sequence (Q7RTN6 whole entry partner, species assumed): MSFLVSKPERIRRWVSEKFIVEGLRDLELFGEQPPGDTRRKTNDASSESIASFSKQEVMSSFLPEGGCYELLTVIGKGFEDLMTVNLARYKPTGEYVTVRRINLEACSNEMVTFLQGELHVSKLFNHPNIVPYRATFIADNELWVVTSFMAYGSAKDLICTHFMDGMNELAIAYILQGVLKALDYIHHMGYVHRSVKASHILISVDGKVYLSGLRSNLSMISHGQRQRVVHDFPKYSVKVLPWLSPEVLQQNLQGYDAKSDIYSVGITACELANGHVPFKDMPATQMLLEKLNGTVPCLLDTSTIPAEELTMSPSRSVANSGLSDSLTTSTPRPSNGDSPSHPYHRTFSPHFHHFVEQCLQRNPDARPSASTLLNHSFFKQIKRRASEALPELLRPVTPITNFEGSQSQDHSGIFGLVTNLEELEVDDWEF
T17 sequence (Q9Y376 whole entry partner, species assumed): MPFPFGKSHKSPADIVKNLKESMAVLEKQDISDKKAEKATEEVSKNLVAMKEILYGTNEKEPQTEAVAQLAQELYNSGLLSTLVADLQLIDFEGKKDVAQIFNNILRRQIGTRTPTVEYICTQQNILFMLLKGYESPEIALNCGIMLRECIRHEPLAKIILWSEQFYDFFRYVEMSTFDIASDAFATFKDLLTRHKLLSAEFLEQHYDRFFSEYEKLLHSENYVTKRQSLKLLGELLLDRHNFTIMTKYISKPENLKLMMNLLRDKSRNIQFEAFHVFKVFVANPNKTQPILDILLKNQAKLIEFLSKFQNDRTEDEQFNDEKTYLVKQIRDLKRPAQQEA
Excerpt: as §1, §2, §3

MST3 = target: T18, MST3 (Homo sapiens, UniProt Q9Y6E0); assay: as above; assay type: biochemical; conditions: 10 μM SCO-101, mean of assay duplicates, read-out: Kinase activity (percentage of DMSO control)
T18 construct: purchased MRC in Dundee (Premier Screen service)
T18 sequence (Q9Y6E0 whole entry, species assumed): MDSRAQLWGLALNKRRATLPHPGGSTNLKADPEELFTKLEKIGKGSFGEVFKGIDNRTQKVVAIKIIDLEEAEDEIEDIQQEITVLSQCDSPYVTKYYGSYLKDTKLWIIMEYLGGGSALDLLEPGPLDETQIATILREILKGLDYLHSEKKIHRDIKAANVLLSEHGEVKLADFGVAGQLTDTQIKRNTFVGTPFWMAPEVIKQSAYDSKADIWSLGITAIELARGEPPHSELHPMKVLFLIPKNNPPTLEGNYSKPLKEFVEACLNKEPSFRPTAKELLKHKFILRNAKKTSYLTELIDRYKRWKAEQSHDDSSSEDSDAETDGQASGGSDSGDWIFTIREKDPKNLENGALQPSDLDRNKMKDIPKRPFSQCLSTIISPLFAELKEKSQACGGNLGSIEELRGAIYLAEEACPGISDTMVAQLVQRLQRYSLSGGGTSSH
Excerpt: as §1, §2, §3

PRAK = target: T19, PRAK (Homo sapiens, UniProt Q8IW41); assay: as above; assay type: biochemical; conditions: 10 μM SCO-101, mean of assay duplicates, read-out: Kinase activity (percentage of DMSO control)
T19 construct: purchased MRC in Dundee (Premier Screen service)
Excerpt: as §1, §2, §3

EPH-B1 = target: T20, EPH-B1 (Homo sapiens, UniProt P54762); assay: as above; assay type: biochemical; conditions: 10 μM SCO-101, mean of assay duplicates, read-out: Kinase activity (percentage of DMSO control)
T20 construct: purchased MRC in Dundee (Premier Screen service)
Excerpt: as §1, §2, §3

MAP4K3 = MAP4K3 (Homo sapiens, UniProt Q8IVH8); assay: as above; assay type: biochemical; conditions: 10 μM SCO-101, mean of assay duplicates, read-out: Kinase activity (percentage of DMSO control)
Excerpt: as §1, §2, §3

PKCγ = target: T21, PKCγ (Homo sapiens, UniProt P05129); assay: as above; assay type: biochemical; conditions: 10 μM SCO-101, mean of assay duplicates, read-out: Kinase activity (percentage of DMSO control)
T21 construct: MRC Dundee (screening service)
Excerpt: as §1, §2, §3

O=C(Nc1cc(C(F)(F)F)cc(C(F)(F)F)c1)Nc1ccc(Br)cc1-c1nnn[nH]1 [SCO-101]
remaining activity at 10 µM (SRPK1; 10 μM SCO-101, mean of assay duplicates, read-out: Kinase activity (percentage of DMSO control)): 6%
IC50 (SRPK1; first determination, 10 concentrations, read-out: IC50): 2.9 µM
IC50 (SRPK1; mean of two determinations, read-out: mean IC50): 3 µM
IC50 (SRPK1; second determination, 10 concentrations, read-out: IC50): 3 µM
Kinase activity (percentage of DMSO control) (AMPK (hum)): 97 percentage of DMSO control
viability at 20 µM ([1]; Homo sapiens, HT-29, HT29 SN38 resistant, combination of SN38 0.1 μM and SCO-101 20 μM, read-out: cell viability, % of untreated control cells): 22%
re-sensitization of SN38 resistant HT29 cells to SN38 ([1]; SCO-101 20 μM with SN38 0.1 μM): re-sensitization
viability at 72 h, 20 μM [2]: 96%
remaining activity at 10 µM (SYK): 62%
remaining activity at 10 µM (ERK1): 137%
remaining activity at 10 µM (MARK4): 90%
remaining activity at 10 µM (TGFBR1): 111%
remaining activity at 10 µM (Aurora A): 94%
remaining activity at 10 µM (CK2): 107%
remaining activity at 10 µM (Lck): 103%
remaining activity at 10 µM (BRSK1): 124%
remaining activity at 10 µM (IR): 98%
remaining activity at 10 µM (PIM1): 61%
remaining activity at 10 µM (RIPK2): 121%
remaining activity at 10 µM (SGK1): 103%
remaining activity at 10 µM (RSK1): 100%
remaining activity at 10 µM (JNK2): 105%
remaining activity at 10 µM (BRK): 94%
remaining activity at 10 µM (PKBb): 84%
remaining activity at 10 µM (CDK2-Cyclin A): 113%
remaining activity at 10 µM (LKB1): 96%
remaining activity at 10 µM (MST3): 135%
remaining activity at 10 µM (PRAK): 69%
remaining activity at 10 µM (EPH-B1): 124%
remaining activity at 10 µM (MAP4K3): 113%
remaining activity at 10 µM (PKCγ): 97%
